Legend:
[1] = tested on: VCP/Htt interaction (GST-VCP with full-length Htt of mouse brain lysate); assay: GST pull-down of VCP/Htt interaction; type: binding; conditions: GST-VCP + total mouse brain lysate, 3 µM peptide, 16 h, n = 3
Procedure: Bacteria-expressed GST or GST–VCP, or GST–VCP truncated mutants were immobilized on glutathione-Sepharose 4B beads (GE Healthcare) for three hours and then washed three times. Beads were incubated with total lysates of mouse brains overnight at 4 °C. Beads were then washed with a GST binding buffer (100 mM NaCl, 50 mM NaF, 2 mM EDTA, 1% Triton-X-100 and protease inhibitor cocktail) and were analysed by SDS–PAGE and IB.
Supplementary Figure 4: Rational design of a peptide inhibitor to block VCP/Htt interaction. (a) GST or GST-VCP was incubated with total lysates of mouse brain and the indicated peptides ( 3 µM) for 16 hours, followed by immunoblotting with anti-Htt antibodies. Representative blots are from three independent experiments. Quantitation of VCP/Htt binding was shown below the blot as the m ean of three independent experiments. Data are mean ± SEM. *, p<0.05 vs. T AT -treated group (Paired Student’s t test). (b) HEK293 cells were co-expressed with GFP-VCP and Myc-73Q FL plasmids as indicated. After 48 hours incubation with the indicated peptides ( 3 µM/day, each), immunoprecipitation analysis was performed. The shown blots are from three independent experiments. (c) HEK293 cells were co-expressed with GFP-VCP and Myc-73Q FL plasmids as indicated. […] The blots of the bindings of mtHtt/VCP were quantitated with NIH Image J software. The IC50 was calculated. […]

[2] = tested on: HdhQ111 / HdhQ7 mouse striatal cells; assay: Mitochondrial morphology, anti-Tom20 staining; type: cell-based
Procedure: Figure 4 HV-3 treatment reduces mitochondrial damage and cell death in HD cell cultures. Mouse HdhQ7 and HdhQ111 striatal cells were treated with control peptide TAT or peptide HV-3 (3 uM/day for 3 days). (a) Left panel: Mitochondrial membrane potential (MMP) was determined by TMRM fluorescent dye. Right panel: HdhQ111 cells were transfected with control siRNA (siCon) and VCP siRNA (siVCP) for three days. The MMP was determined by TMRM in HdhQ111 cells treated with TAT or HV-3. (b) Mitochondrial morphology was determined by staining cells with anti-Tom20 antibody. Scale bar: 10 μm. The percentage of cells with fragmented mitochondria relative to the total number of cells was quantitated. At least 100 cells per group were counted. (c) Mitochondrial morphology was determined by EM. The length of mitochondria and the number of mitophagosomes were quantitated. At least 90 mitochondria per group were counted. […] HMGB1 release into culture medium was determined by IB analysis with anti-HMGB1 antibody. […] Cell death was determined by the release of LDH. […] (g) Quantitation of neurite length of medium spiny neurons. At least 50 neurons per group were counted by an observer blind to experimental conditions. (h) Left: the MMP was determined by TMRM fluorescent dye. […] Mitochondrial length along neurites of DARPP32/Tuj1-positive neurons was quantitated. […]

## CSCC[C@H](NC(=O)[C@@H](NC(=O)[C@H](CC(C)C)NC(=O)[C@@H](NC(=O)[C@H](Cc1c[nH]cn1)NC(=O)CCCCCNC(=O)[C@H](CCCNC(=N)N)NC(=O)[C@H](CCCNC(=N)N)NC(=O)[C@H](CCCNC(=N)N)NC(=O)[C@H](CCC(N)=O)NC(=O)[C@H](CCCNC(=N)N)NC(=O)[C@H](CCCNC(=N)N)NC(=O)[C@H](CCCCN)NC(=O)[C@H](CCCCN)NC(=O)[C@H](CCCNC(=N)N)NC(=O)CNC(=O)[C@@H](N)Cc1ccc(O)cc1)C(C)C)C(C)C)C(=O)N[C@@H](CS)C(=O)N[C@@H](C)C(=O)N[C@H](C(N)=O)[C@@H](C)O [HV-3]
[1]
  block of VCP/Htt interaction: only the addition of peptide HV-3 blocks the interaction of VCP/Htt
[2]; HdhQ111 cells, 3 uM/day for 3 days, anti-Tom20
  fragmented mitochondria: reduced the number of fragmented mitochondria
[2]; wt counterparts of the HD models
  mitochondrial morphology, wt: only minor effects

Reference: publication PMC5007466, “VCP recruitment to mitochondria causes mitophagy impairment and neurodegeneration in models of Huntington's disease” (Nature Communications, 2016)
